Measurements from patent publication US8604029B2, “2-[(2-substituted)-indolizin-3-yl]-2-oxo-acetamide derivatives as antifungal agents” (F2G Ltd British Body Corporate, priority 2006, dated 2013).
≈ marks a conversion by molar mass, not a printed value.

Tests used:
Experiment in all cases: MIC measurement, YAG medium
Format in all cases: cell-based
[1] = tested on: Aspergillus flavus; conditions: Aspergillus flavus, MIC banded into grades, lowest concentration inhibiting growth by >70%
Protocol: (§1) Between 1 and 5 mgs of compound were accurately weighed out into a sterile Eppendorf tube. The compound was dissolved in DMSO to give a solution containing […]. Tubes were stored at −20° C. until required.
(§2) On the day of testing thawed solutions were vortex mixed to ensure homogeneity. 30 μL of solution was removed and added to 570 μL of sterile water in a separate sterile Eppendorf. The thoroughly mixed solution was used to prepare a series of doubling dilutions in water, in a deep well plate. Thirteen replicate plates were prepared using a Minitrak by aspirating 20 μL from each well into eleven clear polystyrene 96 well plates.
(§3) Spores of Aspergillus spp. (Aspergillus fumigatus [two strains], Aspergillus terreus [two strains], Aspergillus niger and Aspergillus flavus) were harvested from cultures grown on Sabarauds agar for 5 days, and resuspended in PBS/Tween 80 to approx 1×10^7 cfu/mL. Other filamentous fungi (Absidia corymbifera, Fusarium solani, Rhizomucor, Scedosporium spp., Trichophyton spp.), were grown on Sabarauds agar for 2-10 days and spores/hyphae resuspended in PBS/Tween to give approx 1×10^7 cfu/mL. Candida species (Candida albicans, Candida glabrata, Candida krusei, Candida parapsilosis and Candida tropicalis) were grown on Sabarauds agar, cells were harvested from the agar using a sterile loop and resuspended in PBS/Tween 80 to approx 1×10^6 cfu/mL. Each organism suspension was diluted in RPMI medium, containing 2% glucose and 0.135 M MOPS buffer (pH 7.0) to 0.5-2×10^4 cfu/mL for Aspergillus spp. and other filamentous fungi and 0.5-2×10^3 cfu/mL for yeast. 80 μL of an organism suspension was added to each well of the plate containing drug dilutions.
(§4) This produced MIC plates with a drug range 50-0.05 mg/L and organism inocula of 1-2×10^4 cfu/mL for Aspergillus spp. and other filamentous fungi and 1-2×10^3 cfu/mL for yeasts. All plates were incubated for 24-48 hrs at 35° C. Growth was assessed by monitoring the optical density at 485 nm for each well. The MIC of a compound is the lowest drug concentration that inhibits growth of an organism by >80% compared with a drug free control. MICs are recorded as mg/L. Other growth media can be used for susceptibility testing, and the activity of the described compounds can also be assessed in a medium comprising 1% glucose, 1% ammonium chloride and 0.5% yeast extract (YAG medium). To perform MIC tests in this medium, dilutions of compounds are prepared in microtitre plates as described above. Fungal strains to be tested are grown and harvested in an identical manner to that described above, each organism suspension is then diluted in YAG medium to 0.5-2×10^4 cfu/mL for Aspergillus spp. and other filamentous fungi and 0.5-2×10^3 cfu/mL for yeast. 80 μL of an organism suspension was added to each well of the plate containing drug dilutions. This produced MIC plates with a drug range 50-0.05 mg/L and organism inocula of 1-2×10^4 cfu/mL for Aspergillus spp. and other filamentous fungi and 1-2×10^3 cfu/mL for yeasts. All plates were incubated for 24 hrs at 35° C. Growth was assessed by monitoring the optical density at 485 nm for each well. The MIC of a compound is the lowest drug concentration that inhibits growth of an organism by >70% compared with a drug free control. MICs are recorded as mg/L. In cases where the MIC of an organism is […] mg/L the MIC is repeated using a concentration range of 0.5-0.0005 mg/L. MIC tests in YAG medium have more clear-cut endpoints and have slightly lower MICs than those performed in RPMI medium.
(§5) The following organisms were tested: Absidia corymbifera, Aspergillus flavus, Aspergillus fumigatus AF293 and AF210, Aspergillus niger, Aspergillus terreus AT4 and AT49, Candida albicans, Candida glabrata, Candida krusei, Candida parapsilosis, Candida tropicalis, Fusarium solani, Rhizomucor sp., Scedosporium apiospermum, Scedosporium prolificans, Trichophyton mentagrophytes, and Trichophyton rubrum.

[2] = tested on: Aspergillus fumigatus AF210; conditions: Aspergillus fumigatus, MIC banded into grades, strain AF210, read-out: MIC A. fumigatus 210
Protocol: as §1, §2, §3, §4, §5

[3] = tested on: Aspergillus fumigatus; conditions: Aspergillus fumigatus; YAG medium; MIC banded into grades; strain AF293; read-out: MIC A. fumigatus
Protocol: as §1, §2, §3, §4, §5

[4] = tested on: Aspergillus niger; conditions: Aspergillus niger, MIC banded into grades
Protocol: as §1, §2, §3, §4, §5

[5] = tested on: Aspergillus terreus AT49; conditions: Aspergillus terreus, MIC banded into grades, strain AT49, read-out: MIC A. terreus 49
Protocol: as §1, §2, §3, §4, §5

[6] = tested on: Aspergillus terreus; conditions: Aspergillus terreus, MIC banded into grades, strain not named in head (AT4)
Protocol: as §1, §2, §3, §4, §5

In the case of `Cc1nc(C(C)C)cn1C(C)(C)c1cccc(NC(=O)C(=O)c2c(-c3ccccc3)cc3ccccn23)c1` [Example 25], the MIC [1] is reported as 1 to 10 µg/mL (≈ 1.98 to 19.8 µM), the MIC [2] is reported as > 10 µg/mL and the MIC [3] is reported as > 10 µg/mL. For the same compound, the MIC [4] was > 10 µg/mL, the MIC [5] was 1 to 10 µg/mL (≈ 1.98 to 19.8 µM) and the MIC [6] was 1 to 10 µg/mL (≈ 1.98 to 19.8 µM).

Compound `CCOCCN(C1=NC(C)(C)CO1)c1ccc(NC(=O)C(=O)c2c(-c3ccccc3)cc3ccccn23)cc1` [Example 28] has an MIC [1] of 1 to 10 µg/mL (≈ 1.91 to 19.1 µM), an MIC [2] of 1 to 10 µg/mL (≈ 1.91 to 19.1 µM) and an MIC [3] of 1 to 10 µg/mL (≈ 1.91 to 19.1 µM). For the same compound, the MIC [4] was < 1 µg/mL, the MIC [5] was 1 to 10 µg/mL (≈ 1.91 to 19.1 µM) and the MIC [6] was 1 to 10 µg/mL (≈ 1.91 to 19.1 µM).

For `CCn1ccnc1Cc1ccc(NC(=O)C(=O)c2c(-c3ccccc3C)cc3ccccn23)cc1` [Example 30, N-[4-(3-Ethyl-1H-imidazol-2ylmethyl)-phenyl]-2-oxo-2-(2-o-tolyl-indolizin-3yl)-acetamide], the MIC [1] was > 10 µg/mL, the MIC [2] was > 10 µg/mL and the MIC [3] was > 10 µg/mL. The MIC [4] was > 10 µg/mL, the MIC [5] was > 10 µg/mL and the MIC [6] was > 10 µg/mL.

In the case of `O=C(Nc1ccc(N2CCN(Cc3ccco3)CC2)cc1)C(=O)c1c(-c2ccccc2)cc2ccccn12` [Example 31, 4-[4-(2-Furan-2-yl-methyl-piperazin-yl)-phenyl]-2-oxo-2-(2-phenyl-indolizin-3-yl)-acetamide], the MIC [1] is reported as < 1 µg/mL, the MIC [2] is reported as < 1 µg/mL and the MIC [3] is reported as < 1 µg/mL. The MIC [4] was < 1 µg/mL, the MIC [5] was < 1 µg/mL and the MIC [6] was < 1 µg/mL.

For `Cc1cc(OCCOc2ccc(NC(=O)C(=O)c3c(-c4ccccc4)cc4ccccn34)cc2)cc(C)n1` [Example 71, N-{4-[2-(2,6-Dimethyl-pyridin-4-yloxy)-ethoxy]-phenyl}-2-oxo-2-(2-phenyl-indolizin-3-yl)-acetamide], the MIC [3] was < 1 µg/mL.

`Cc1cc(C)nc(CCCCc2ccc(NC(=O)C(=O)c3c(-c4ccccc4)cc4ccccn34)cc2)c1` [Example 72, N-{4-[4-(4,6-Dimethyl-pyridin-2-yl)-butyl]-phenyl}-2-oxo-2-(2-phenyl-indolizin-3-yl)-acetamide] was tested, and the MIC [3] was < 1 µg/mL.

For `CCc1cccc(N2CCN(c3ccc(NC(=O)C(=O)c4c(-c5ccccc5)cc5ccccn45)cc3)CC2)n1` [Example 73, N-{4-[4-(6-ethyl-pyridin-2-yl)-piperazin-1-yl]-phenyl}-2-oxo-2-(2-phenyl-indolizin-3-yl)-acetamide], the MIC [3] was < 1 µg/mL.

For `Cc1ccc(N2CCN(c3ccc(NC(=O)C(=O)c4c(-c5ccccc5)cc5ccccn45)cc3)CC2)nc1` [Example 74, N-{4-[4-(5-Methyl-pyridin-2-yl)-piperazin-1-yl]-phenyl}-2-oxo-2-(2-phenyl-indolizin-3-yl)-acetamide], the MIC [3] was < 1 µg/mL.

In the case of `CCc1ccnc(N2CCN(c3ccc(NC(=O)C(=O)c4c(-c5ccccc5)cc5ccccn45)cc3)CC2)c1` [Example 75, N-{4-[4-(4-ethyl-pyridin-2-yl)-piperazin-1-yl]-phenyl}-2-oxo-2-(2-phenyl-indolizin-3-yl)-acetamide], the MIC [3] is reported as < 1 µg/mL.

`COCCOCCOc1cc(C)nc(N2CCN(c3ccc(NC(=O)C(=O)c4c(-c5ccccc5)cc5ccccn45)cc3)CC2)c1` [Example 76, N-[4-(4-{4-[2-(2-methoxy-ethoxy)-ethoxyl]-6-methyl-pyridin-2-yl}-piperazin-1-yl)-phenyl]-2-oxo-2-(2-phenyl-indolizin-3-yl)-acetamide] was tested, and the MIC [3] was < 1 µg/mL.

`Cc1cc(C)nc(N(C)CCNc2ccc(NC(=O)C(=O)c3c(-c4ccccc4)cc4ccccn34)cc2)c1` [Example 78, N-(4-{2-[(4,6-Dimethyl-pyridin-2-yl)-methyl-amino]-ethylamino}-phenyl)-2-oxo-2-(2-phenyl-indolizin-3-yl)-acetamide] was tested, and the MIC [3] was < 1 µg/mL.

In the case of `Cc1cc(C)nc(N2CCC(O)(c3ccc(NC(=O)C(=O)c4c(-c5ccccc5)cc5ccccn45)cc3)CC2)c1` [Example 79, N-[4-(4-hydroxy-4′,6′-dimethyl-3,4,5,6-tetrahydro-2H-[1,2′]-bipyridinyl-4-yl)-phenyl]-2-oxo-2-(2-phenyl-indolizin-3-yl)-acetamide], the MIC [3] is reported as > 10 µg/mL.

With `Cc1cc(C)nc(N2CCN(c3ccc(NC(=O)C(=O)c4c(-c5ccccc5)cc5ccccn45)c(C)c3)CC2)c1` [Example 80, N-{4-[4-(4,6-Dimethyl-pyridin-2-yl)-piperazin-1-yl]-2-methyl-phenyl}-2-oxo-2-(2-phenyl-indolizin-3-yl)-acetamide] the MIC [3] was < 1 µg/mL.

For `COCc1cc(NC(=O)C(=O)c2c(-c3ccccc3)cc3ccccn23)ccc1N1CCN(c2cc(C)cc(C)n2)CC1` [Example 81, N-{4-[4-(4,6-Dimethyl-pyridin-2-yl)-piperazin-1-yl]-3-methoxymethyl-phenyl}-2-oxo-2-(2-phenyl-indolizin-3-yl)-acetamide], the MIC [3] was < 1 µg/mL.

In the case of `Cc1cc(C)nc(N2CCN(c3ccc(NC(=O)C(=O)c4c(-c5ccccc5)cc5ccccn45)cc3C)CC2)c1` [Example 82, N-{4-[4-(4,6-Dimethyl-pyridin-2-yl)-piperazin-1-yl]-3-methyl-phenyl}-2-oxo-2-(2-phenyl-indolizin-3-yl)-acetamide], the MIC [3] is reported as < 1 µg/mL.

In the case of `COCc1cc(N2CCN(c3cc(C)cc(C)n3)CC2)ccc1NC(=O)C(=O)c1c(-c2ccccc2)cc2ccccn12` [Example 83, N-{4-[4-(4,6-Dimethyl-pyridin-2-yl)-piperazin-1-yl]-2-methoxymethyl-phenyl}-2-oxo-2-(2-phenyl-indolizin-3-yl)-acetamide], the MIC [3] is reported as < 1 µg/mL.

For `O=C(Nc1ccc(-c2cocn2)cc1)C(=O)c1c(-c2ccc(-c3ccccc3)cc2)cc2ccccn12` [Example 85, 2-(2-Biphenyl-4-yl-indolizin-3-yl)-N-(4-oxazol-4-yl-phenyl)-2-oxo-acetamide], the MIC [3] was > 10 µg/mL.

`O=C(Nc1ccc(N2CCN(c3cccc(CCO)n3)CC2)cc1)C(=O)c1c(-c2ccccc2)cc2ccccn12` [Example 88, N-(4-{4-[6-(2-hydroxy-ethyl)-pyridin-2-yl]-piperazin-1-yl}-phenyl)-2-oxo-2-(2-phenyl-indolizin-3-yl)-acetamide] was tested, and the MIC [3] was < 1 µg/mL.

In the case of `O=C(Nc1ccc(N2CCN(c3cc(OCCO)ccn3)CC2)cc1)C(=O)c1c(-c2ccccc2)cc2ccccn12` [Example 89, N-(4-{4-[4-(2-Hydroxy-ethoxy)-pyridin-2-yl]-piperazin-1-yl}-phenyl)-2-oxo-2-(2-phenyl-indolizin-3-yl)-acetamide], the MIC [3] is reported as 1 to 10 µg/mL (≈ 1.78 to 17.8 µM).

With `O=C(Nc1ccc(NCCOc2ccccn2)cc1)C(=O)c1c(-c2ccccc2)cc2ccccn12` [Example 90, 2-Oxo-2-(2-phenyl-indolizin-3-yl)-N-{4-[2-(pyridin-2-yloxy)-ethylamino]-phenyl}-acetamide] the MIC [3] was < 1 µg/mL.

`Cc1cc(C)nc(CNc2ccc(NC(=O)C(=O)c3c(-c4ccccc4)cc4ccccn34)cc2)c1` [Example 91, N-{4-[(4,6-Dimethyl-pyridin-2-ylmethyl)-amino]-phenyl}-2-oxo-2-(2-phenyl-indolizin-3-yl)-acetamide] was tested, and the MIC [3] was < 1 µg/mL.

In the case of `Cc1cc(C)nc(NCCNc2ccc(NC(=O)C(=O)c3c(-c4ccccc4)cc4ccccn34)cc2)c1` [Example 92, N-{4-[2-(4,6-dimethyl-pyridin-2-yl-amino)-ethylamino]-phenyl}-2-oxo-2-(2-phenyl-indolizin-3-yl)-acetamide], the MIC [3] is reported as < 1 µg/mL.
